Measurements as given in PMC10770013, “Antiproliferative polyketides from fungus Xylaria cf. Longipes SWUF08-81 in different culture media” (Natural Products and Bioprospecting, 2024).
≈ marks a conversion by molar mass, not a printed value. Entries after “also recorded” stand apart in the source; their conditions may differ.

Legend:
[1] = system: HT29; assay: MTT assay, antiproliferative activity against HT29; format: cell-based, human; conditions: for IC50: Homo sapiens, HT-29; for toxicity in words, HT29: MTT assay
Method: (§1) The antiproliferative activity was evaluated by MTT (3-(4,5-dimethylthiazol-2-yl)-2,5-diphenyl tetrazolium bromide) assay. Four cancer cell lines; human cervical carcinoma (HeLa), human colon carcinoma (HT29 and HCT116) and human breast carcinoma (MCF-7), along with African green monkey kidney cells (Vero cells) were seeded in 96-well plates (8000 cells/well) and cultured for 24 h, followed by being treated with the selected compounds at 100 µg/mL for 72 h. Following this, 10 μL of MTT reagent (5 mg/mL in phosphate buffer solution (PBS)) was added to each well and further incubated at 37 °C for 2 h. Then, 100 μL of DMSO (dimethyl sulfoxide) was used to dissolve the formazan dye. Finally, the absorbance of the solution was measured using a microplate reader (Bio-Rad Laboratories, Hercules, CA) at wavelengths of 550 and 655 nm. The absorbance at 655 nm was used as a reference wavelength. […] Cisplatin was used as the positive control drug.

[2] = system: MCF-7; assay: MTT assay, antiproliferative activity against MCF-7; format: cell-based, human; conditions: triplicate, mean ± SD; for IC50: Homo sapiens, MCF7, 72 h
Method: as §1

[3] = system: HeLa; assay: MTT assay, antiproliferative activity against HeLa; format: cell-based, human; conditions: for IC50: Homo sapiens, HeLa; for toxicity in words, HeLa: MTT assay
Method: as §1

[4] = system: Vero cells; assay: MTT assay, antiproliferative activity against Vero cells; format: cell-based, African green monkey; conditions: Chlorocebus sabaeus, 72 h, triplicate, mean ± SD, normal cells
Method: as §1

[5] = system: HCT116; assay: MTT assay, antiproliferative activity against HCT116; format: cell-based, human; conditions: for IC50: Homo sapiens, HCT-116, MTT, 72 h, triplicate, mean ± SD; for toxicity in words, HCT116: MTT assay
Method: as §1

[6] = system: cancer cell lines (HCT116, HT29, MCF-7 and HeLa); assay: MTT assay, all four cancer cell lines together; format: cell-based, human
Method: as §1

[7] = system: HCT116, HT29, MCF-7, HeLa and Vero cells; assay: MTT assay, all cancer cells and normal cells together; format: cell-based
Method: as §1

[8] = MTT, 72 h, triplicate, mean ± SD

Row | Structure (SMILES) | IC50 [5] [mg/L] | IC50 [1, 8] [mg/L] | IC50 [2] [mg/L] | IC50 [3, 8] [mg/L] | melting point [°C] | Antiproliferative activity, IC50 ± SD, HT29 [1, 8] [mg/L] | Antiproliferative activity, IC50 ± SD, MCF-7 ([2]; 72 h) [mg/L] | Antiproliferative activity, IC50 ± SD, HeLa [3, 8] [mg/L] | IC50 [4] [mg/L] | antiproliferative activity in words, all cancer cells [6] | toxicity in words, HCT116 [5] | toxicity in words, HT29 [1] | toxicity in words, HeLa [3] | antiproliferative activity in words, all cancer cells and normal cells ([7]; MTT assay) | IC50 ([7]; range over HCT116, HT29, MCF-7, HeLa and Vero cells, read-out: IC50 range against all cancer cells and normal cells) [mg/L]
1 | N.N.[Cl][Pt][Cl] [Cisplatin, reference compound] |  |  |  |  |  | 1.59 ± 0.07 | 3.13 ± 0.26 | 1.93 ± 0.04 |  |  |  |  |  |  | 
2 | COc1cc2oc3cc(O)cc(O)c3c2c(C)c1O [Compound 1, 1,3,8-trihydroxy-7-methoxy-9-methyldibenzofuran] | 14.4 ± 0.87 (≈ 55.2 µM) | 8.99 ± 1.96 (≈ 34.5 µM) | 18.4 ± 0.99 (≈ 70.7 µM) | 16.7 ± 0.55 (≈ 64.1 µM) |  |  |  |  | 25 ± 0.63 (≈ 96.1 µM) | moderate anti-proliferation |  |  |  |  | 
3 | C[C@H]1CCC[C@H](Cc2cc(O)cc(O)c2)O1 [Compound 17, (2′R,6′S)-5-((-6-methyltetrahydro-2H-pyran-2-yl)methyl)benzene-1,3-diol] | 17.5 ± 1.29 (≈ 78.7 µM) | 19.5 ± 0.77 (≈ 87.7 µM) | 50.2 ± 3.85 (≈ 226 µM) | 13.5 ± 1.15 (≈ 60.9 µM) |  |  |  |  | > 100 | moderate anti-proliferation |  |  |  |  | 
4 | C[C@H]1CCC[C@H](C[C@H]2Cc3cc(O)cc(O)c3C(=O)O2)O1 [Compound 18, asperentin] | 2.42 ± 0.2 (≈ 8.28 µM) | 4.51 ± 0.13 (≈ 15.4 µM) | 10.1 ± 0.52 (≈ 34.5 µM) | 2.09 ± 0.16 (≈ 7.15 µM) |  |  |  |  | 8.77 ± 0.91 (≈ 30 µM) | significantly toxic |  |  |  | strong broad spectrum | 2.09 to 10.1 (≈ 7.15 to 34.5 µM)
5 | C[C@@H]1O[C@@H](C[C@H]2Cc3cc(O)cc(O)c3C(=O)O2)CC[C@@H]1O [Compound 21, 5′-hydroxyasperentin] | > 100 | > 100 | > 100 | > 100 |  |  |  |  | > 100 |  |  |  |  |  | 
6 | C[C@H]1C[C@@H](O)C[C@H](C[C@H]2Cc3cc(O)cc(O)c3C(=O)O2)O1 [Compound 22, 4′-hydroxyasperentin] | > 100 | > 100 | > 100 | > 100 |  |  |  |  | > 100 |  |  |  |  |  | 

The next lines start with results.

Row | IC50 [5] [mg/L] | IC50 [1, 8] [mg/L] | IC50 [2] [mg/L] | IC50 [3, 8] [mg/L] | melting point [°C] | Structure (SMILES) | Antiproliferative activity, IC50 ± SD, HT29 [1, 8] [mg/L] | Antiproliferative activity, IC50 ± SD, MCF-7 ([2]; 72 h) [mg/L] | Antiproliferative activity, IC50 ± SD, HeLa [3, 8] [mg/L] | IC50 [4] [mg/L] | antiproliferative activity in words, all cancer cells [6] | toxicity in words, HCT116 [5] | toxicity in words, HT29 [1] | toxicity in words, HeLa [3] | antiproliferative activity in words, all cancer cells and normal cells ([7]; MTT assay) | IC50 ([7]; range over HCT116, HT29, MCF-7, HeLa and Vero cells, read-out: IC50 range against all cancer cells and normal cells) [mg/L]
7 | 92.9 ± 2.7 (≈ 349 µM) | 96.4 ± 3.37 (≈ 362 µM) | > 100 | > 100 | 135 to 136 | COC(=O)c1cc(OC)c(O)c2c1C[C@@H](C)OC2=O [Compound 2, (3R)-7-methoxy-5-methoxycarbonylmellein] |  |  |  | > 100 |  |  |  |  |  | 
8 | > 100 | > 100 | > 100 | > 100 |  | C[C@@H]1Cc2cccc(O)c2C(=O)O1 [Compound 3, (−)-mellein] |  |  |  | > 100 |  |  |  |  |  | 
9 | > 100 | > 100 | > 100 | > 100 |  | COC(=O)c1ccc(O)c2c1C[C@@H](C)OC2=O [Compound 4, (-)-5-methoxycarbonylmellein] |  |  |  | > 100 |  |  |  |  |  | 
10 | 54.9 ± 3.35 (≈ 247 µM) | 72.6 ± 2 (≈ 327 µM) | > 100 | 57.8 ± 1.26 (≈ 260 µM) |  | C[C@@H]1Cc2c(C(=O)O)ccc(O)c2C(=O)O1 [Compound 5, (−)-5-carboxymellein] |  |  |  | > 100 |  | slightly toxic | slightly toxic | slightly toxic |  | 
11 | 45.1 ± 3.65 (≈ 147 µM) | 67.6 ± 6.99 (≈ 221 µM) | > 100 | 92.9 ± 2.7 (≈ 303 µM) |  | COc1cc(O)cc2c1C(=O)O[C@H](C[C@H]1CCC[C@@H](C)O1)C2 [Compound 15, (3S,2′R,6′R)-asperentin-8-O-methylether] |  |  |  | > 100 |  | slightly toxic | slightly toxic | slightly toxic |  | 
12 | 66.5 ± 7.68 (≈ 217 µM) | > 100 | > 100 | > 100 |  | COc1cc(O)cc2c1C(=O)O[C@@H](C[C@H]1CCC[C@H](C)O1)C2 [Compound 19, asperentin-8-O-methylether] |  |  |  | > 100 |  |  |  |  |  | 
13 | 8.69 ± 0.69 (≈ 28.4 µM) | 33.3 ± 4.42 (≈ 109 µM) | 11.7 ± 0.82 (≈ 38.2 µM) | 4.98 ± 0.4 (≈ 16.3 µM) |  | COc1cc(O)c2c(c1)C[C@H](C[C@H]1CCC[C@H](C)O1)OC2=O [Compound 20, asperentin-6-O-methylether] |  |  |  | > 100 | significantly toxic; also recorded: moderate anti-proliferation |  |  |  |  | 
